Among the data in ChEMBL document CHEMBL1147597, “Synthesis and biological evaluations of novel benzimidazoles as potential antibacterial agents” (Bioorg Med Chem Lett, 2004) are MIC and IC50 values, retold here.

For test [1], the system named is Proteus vulgaris. Kind of test: Minimal inhibitory concentration against gram negative Proteus vulgaris 8427 strain (Range is 50-100 uM). In kind it is functional.
Test [2] has as its system Enterococcus hirae. Put plainly: Minimal inhibitory concentration against gram positive Enterococcus hirae 29212 strain (Range is 3-6 uM). In kind it is functional.
The subject of test [3] is Klebsiella pneumoniae. Kind of test: Minimal inhibitory concentration against gram negative Klebsiella pneumoniae 13383 strain (Range is 6-12 uM). In kind it is functional.
Test [4] deals with Staphylococcus aureus. Put plainly: Minimal inhibitory concentration against Staphylococcus aureus (Range is 3-6 uM). In kind it is functional.
For another test, the system named is Pseudomonas aeruginosa. Put plainly: Minimal inhibitory concentration against gram negative Pseudomonas aeruginosa 25416 strain (Range is 50-100 uM). In kind it is functional.
The next test deals with Streptococcus pneumoniae. Put plainly: Minimal inhibitory concentration against gram positive Streptococcus pneumoniae 6303 strain (Range is 12-25 uM). In kind it is functional.
Test [5] concerns Escherichia coli. Kind of test: Minimal inhibitory concentration against Escherichia coli. In kind it is functional.
Test [6] relates to Escherichia coli. Kind of test: Minimal inhibitory concentration against gram negative Escherichia coli 25922 strain. To be noted: ATCC25922. In kind it is functional.
Test [7] deals with Staphylococcus aureus. Put plainly: Minimal inhibitory concentration against gram positive Staphylococcus aureus 13709 strain (Range is 3-6 uM). In kind it is functional.
For another test, the system named is Streptococcus pyogenes. Kind of test: Minimal inhibitory concentration against gram positive Streptococcus pyogenes 49399 strain (Range is 6-12 uM). In kind it is functional.
A further test concerns Bacteria. Kind of test: Inhibitory activity against bacteria in the transcription/translation assay. In kind it is functional, organism-based.
Test [8] concerns Staphylococcus aureus. Put plainly: Minimal inhibitory concentration against Staphylococcus aureus (Range is 12-25 uM). In kind it is functional.
Test [9] relates to Escherichia coli. Put plainly: Minimal inhibitory concentration against Escherichia coli (Range is 25-50 uM). In kind it is functional.
The subject of test [10] is Staphylococcus aureus. Put plainly: Minimal inhibitory concentration against Staphylococcus aureus (Range is 25-50 uM). In kind it is functional.
Test [11] concerns Staphylococcus aureus. Put plainly: Minimal inhibitory concentration against Staphylococcus aureus (Range is 6-12 uM). In kind it is functional.
The subject of test [12] is Enterococcus hirae. Kind of test: Minimal inhibitory concentration against gram positive Enterococcus hirae 29212 strain (Range is 1-3 uM). In kind it is functional.
In test [13] the test system is Staphylococcus aureus. Put plainly: Minimal inhibitory concentration against gram positive Staphylococcus aureus 13709 strain (Range is 6-12 uM). In kind it is functional.
The test system of test [14] is Proteus vulgaris. Kind of test: Minimal inhibitory concentration against gram negative Proteus vulgaris 8427 strain (Range is 25-50 uM). In kind it is functional.
Test [15] relates to Klebsiella pneumoniae. Kind of test: Minimal inhibitory concentration against gram negative Klebsiella pneumoniae 13383 strain (Range is 25-50 uM). In kind it is functional.
Test [16] has as its system Staphylococcus aureus. Put plainly: In vitro minimal inhibitory concentration against Staphylococcus aureus. In kind it is functional.
The test system of test [17] is Staphylococcus aureus. Put plainly: Minimal inhibitory concentration against Staphylococcus aureus (Range is 50-100 uM). In kind it is functional.
Test [18] concerns Escherichia coli. Put plainly: Minimal inhibitory concentration against Escherichia coli (Range is 50-100 uM). In kind it is functional.

≈ marks a conversion by molar mass, not a printed value.

`O=C(Cn1c(C2CCNCC2)nc2cc(Cl)c(Cl)cc21)N/N=C/c1c[nH]c2ccc(OCc3ccccc3)cc12`: the MIC (as a rule, the lowest concentration found to suppress growth) in the test with Proteus vulgaris [1] amounted to 100 µM (≈ 57.6 µg/mL); against Enterococcus hirae [2] it was 6 µM (≈ 3.45 µg/mL); in the test on Klebsiella pneumoniae [3] it was 12 µM (≈ 6.91 µg/mL); with Staphylococcus aureus [4] it was 6 µM (≈ 3.45 µg/mL); against Pseudomonas aeruginosa, 100 µM (≈ 57.6 µg/mL); with Streptococcus pneumoniae, 25 µM (≈ 14.4 µg/mL). Besides, the MIC in the test with Escherichia coli [5] is > 100 µM; against Escherichia coli [6], > 100 µM; against Staphylococcus aureus [7], 6 µM (≈ 3.45 µg/mL); against Streptococcus pyogenes it was 12 µM (≈ 6.91 µg/mL). Besides, the 50% inhibitory concentration (IC50) – broadly, the concentration that gives 50% inhibition – with Bacteria was > 100 µM.

As for `O=C(Cn1c(C2CCNCC2)nc2cc(Cl)c(Cl)cc21)N/N=C/c1ccc(O)c(O)c1O`, the MIC with Staphylococcus aureus [8] is 25 µM (≈ 12 µg/mL); in the test on Escherichia coli [5], > 100 µM.

On to `CC(C)c1ccc2c(c1)CCC1C(C)(C/N=C(\S)NNC(=O)Cn3c(C4CCNCC4)nc4cc(Cl)c(Cl)cc43)CCC[C@]21C` (some centres undefined), for which the minimal inhibitory concentration (MIC) against Escherichia coli [9] and against Staphylococcus aureus [10] was 50 µM (≈ 33.5 µg/mL) in each case.

Take `O=C(Cn1c(C2CCNCC2)nc2cc(Cl)c(Cl)cc21)N/N=C/c1cnn(-c2ccccc2)c1Cl`: the MIC in the test with Staphylococcus aureus [11] is 12 µM (≈ 6.37 µg/mL); in the test with Enterococcus hirae [12], 3 µM (≈ 1.59 µg/mL); in the test on Staphylococcus aureus [13], 12 µM (≈ 6.37 µg/mL); with Pseudomonas aeruginosa, 100 µM (≈ 53.1 µg/mL); against Streptococcus pneumoniae, 25 µM (≈ 13.3 µg/mL); against Escherichia coli [5], > 100 µM. Also, the MIC against Proteus vulgaris [14] is 50 µM (≈ 26.5 µg/mL); against Escherichia coli [6], > 100 µM; in the test on Klebsiella pneumoniae [15], 50 µM (≈ 26.5 µg/mL); in the test with Streptococcus pyogenes, 12 µM (≈ 6.37 µg/mL). In the test with Bacteria, the IC50 was > 100 µM.

Take `O=C1c2ccccc2C(=O)N1CCCn1c(C2CCNCC2)nc2cc(Cl)c(Cl)cc21`: the MIC against Staphylococcus aureus [16] and with Escherichia coli [5] was > 100 µM throughout.

Regarding `O=C(Cn1c(C2CCNCC2)nc2cc(Cl)c(Cl)cc21)N/N=C/c1ccccn1`, the MIC with Staphylococcus aureus [16] and against Escherichia coli [5] was > 100 µM throughout.

Take `Clc1cc2nc(C3CCNCC3)n(CCCn3c(C4CCNCC4)nc4cc(Cl)c(Cl)cc43)c2cc1Cl`: the MIC in the test on Escherichia coli [9] and against Staphylococcus aureus [10] was 50 µM (≈ 29 µg/mL) throughout.

`O=C(Cn1c(C2CCNCC2)nc2cc(Cl)c(Cl)cc21)NNC(=O)Nc1ccccc1`: the MIC in the test with Staphylococcus aureus [17] was 100 µM (≈ 46.1 µg/mL); in the test on Escherichia coli [5], > 100 µM.

Take `Clc1cc2nc(C3CCNCC3)n(CCCCCn3cnc4ccccc43)c2cc1Cl`: the MIC in the test with Staphylococcus aureus [17] and against Escherichia coli [18] was 100 µM (≈ 45.6 µg/mL) each time.

For `COc1cccc(/C=N/NC(=O)Cn2c(C3CCNCC3)nc3cc(Cl)c(Cl)cc32)c1`, the MIC against Escherichia coli [5] is > 100 µM; in the test with Staphylococcus aureus [10], 50 µM (≈ 23 µg/mL).

Consider `COc1cc(/C=N/NC(=O)Cn2c(C3CCNCC3)nc3cc(Cl)c(Cl)cc32)cc(O)c1OC`, for which the MIC was > 100 µM in the test on Escherichia coli [5] and 50 µM (≈ 25.3 µg/mL) against Staphylococcus aureus [10].

With `O=C(Cn1c(C2CCNCC2)nc2cc(Cl)c(Cl)cc21)N/N=C/c1c[nH]c2ccccc12`, the MIC is > 100 µM against Escherichia coli [5] and 50 µM (≈ 23.5 µg/mL) against Staphylococcus aureus [10].

Consider `COc1cc(/C=N/NC(=O)Cn2c(C3CCNCC3)nc3cc(Cl)c(Cl)cc32)cc([N+](=O)[O-])c1O`, for which the MIC is > 100 µM with Escherichia coli [5] and 50 µM (≈ 26.1 µg/mL) in the test with Staphylococcus aureus [10].

On to `O=C1c2ccccc2C(=O)N1CCCCCCn1c(C2CCNCC2)nc2cc(Cl)c(Cl)cc21`, for which the MIC with Staphylococcus aureus [16] and against Escherichia coli [5] was > 100 µM throughout.

As to `O=C(Cn1c(C2CCNCC2)nc2cc(Cl)c(Cl)cc21)NNC(=S)Nc1ccccc1`, the MIC worked out at 100 µM (≈ 47.7 µg/mL) against Escherichia coli [18] and 50 µM (≈ 23.9 µg/mL) against Staphylococcus aureus [10].

As for `Clc1cc2nc(SCCCCn3c(C4CCNCC4)nc4cc(Cl)c(Cl)cc43)[nH]c2cc1Cl`, the MIC against Staphylococcus aureus [16] and against Escherichia coli [5] was > 100 µM in each case.

Consider `O=C(Cn1c(C2CCNCC2)nc2cc(Cl)c(Cl)cc21)N/N=C/c1ccc2ccccc2n1`, for which the MIC in the test with Escherichia coli [5] is > 100 µM; in the test with Staphylococcus aureus [10] it was 50 µM (≈ 24.1 µg/mL).

Regarding `O=C(Cn1c(C2CCNCC2)nc2cc(Cl)c(Cl)cc21)NNC(=S)NCc1ccco1`, the minimum inhibitory concentration (MIC) against Staphylococcus aureus [17] is 100 µM (≈ 48.1 µg/mL); against Escherichia coli [5], > 100 µM.

As to `O=C1c2ccccc2C(=O)N1CCCCn1c(C2CCNCC2)nc2cc(Cl)c(Cl)cc21`, the MIC in the test with Staphylococcus aureus [16] and against Escherichia coli [5] was > 100 µM throughout.

In the case of `O=C(Cn1c(C2CCNCC2)nc2cc(Cl)c(Cl)cc21)N/N=C/c1cc[n+]([O-])cc1`, the MIC against Staphylococcus aureus [16] and with Escherichia coli [5] was > 100 µM each time.

For `CSc1ccc(NC(=O)NNC(=O)Cn2c(C3CCNCC3)nc3cc(Cl)c(Cl)cc32)cc1`, the minimum inhibitory concentration (MIC) with Escherichia coli [9] amounted to 50 µM (≈ 25.4 µg/mL); in the test on Staphylococcus aureus [8] it was 25 µM (≈ 12.7 µg/mL).

As to `O=C(Cn1c(C2CCNCC2)nc2cc(Cl)c(Cl)cc21)N/N=C/c1c[nH]cn1`, the MIC with Staphylococcus aureus [17] was 100 µM (≈ 42 µg/mL); with Escherichia coli [5], > 100 µM.

As to `O=C(Cn1c(C2CCNCC2)nc2cc(Cl)c(Cl)cc21)N/N=C/c1cccc([N+](=O)[O-])c1`, the values for the MIC with Escherichia coli [5] and in the test with Staphylococcus aureus [10] were > 100 µM and 50 µM (≈ 23.8 µg/mL), respectively.
